Measurements: US6191138A, “Phenanthridines” (Byk Gulden Lomberg Chemische Fabrik GmbH, priority 1996, dated 2001)

test system: PDE IV; assay: Inhibition of PDE IV Activity (method of Bauer and Schwabe, adapted to microtiter plates); assay type: biochemical

| Structure (SMILES) | -log IC50 (Inhibition of PDE IV Activity) |
| --- | --- |
| COC(=O)c1ccc(C2=N[C@H]3CCCC[C@H]3c3cc(OC)c(OC)cc32)cc1 (single isomer, unassigned) [Compound 12, (+)-cis-8,9-dimethoxy-6-[4-(methoxycarbonyl)phenyl]-1,2,3,4,4a,10b-hexahydrophenanthridine] | 4.95 |
| COc1cc2c(cc1OC)[C@@H]1CCCC[C@@H]1N=C2c1ccc(C(=O)OCC2CC2)cc1 (racemic) [Compound 13, (+/ -)-cis-8,9-dimethoxy-6-[4-(cyclopropylmethoxycarbonyl)phenyl]-1,2,3,4,4a ,10b-hexahydrophenanthridine] | 7.39 |
| CCOc1cc2c(cc1OC)C(c1ccc(C(=O)OC)cc1)=N[C@H]1CCCC[C@@H]21 (racemic) [Compound 4, (+/ -)-cis-9-ethoxy-8-methoxy-6-[4-(methoxycarbonyl)phenyl]-1,2,3,4,4a,10b-hexahydrophenanthridine] | 8.73 |
| CCOc1cc2c(cc1OCC)[C@@H]1CCCC[C@@H]1N=C2c1ccc(C(=O)OC)cc1 (single isomer, unassigned) [Compound 10, (+)-cis-8,9-diethoxy-6-[4-(methoxycarbonyl)phenyl]-1,2,3,4,4a,10b-hexahydrophenanthridine] | 7.48 |
| COc1cc2c(cc1OC(F)F)[C@@H]1CCCC[C@@H]1N=C2c1ccc(C(=O)O)cc1.Cl (racemic) [Compound 19, (+/ -)-cis-6-(4-carboxyphenyl)-9-difluoromethoxy-8-methoxy-1,2,3,4,4a,10b-hexahydrophenanthridine hydrochloride] | 7.55 |
| CCOc1cc2c(cc1OC)[C@@H]1CCCC[C@@H]1N=C2c1ccc(C(=O)OC)cc1 (racemic) [Compound 5, (+/ -)-cis-8-ethoxy-9-methoxy-6-[4-(methoxycarbonyl)phenyl]-1,2,3,4,4a,10b-hexahydrophenanthridine] | 7.02 |
| CCOc1cc2c(cc1OC)C(c1ccc(C(=O)O)cc1)=N[C@H]1CCCC[C@@H]21.Cl (racemic) [Compound 16, (+/ -)-cis-6-(4-carboxyphenyl)-9-ethoxy-8-methoxy-1,2,3,4,4a,10b-hexahydrophenanthridine hydrochloride] | 8.66 |
| CCOc1cc2c(cc1OCC)[C@@H]1CCCC[C@@H]1N=C2c1ccc(C(=O)OC)cc1 (racemic) [Compound 2, (+/ -)-cis-8,9-diethoxy-6-[4-(methoxycarbonyl)phenyl]-1,2,3,4,4a,10b-hexahydrophenanthridine] | 8.84 |
| CCOc1cc2c(cc1OCC)[C@@H]1CCCC[C@@H]1N=C2c1ccccc1C(=O)OC (racemic) [Compound 7, (+/ -)-cis-8,9-diethoxy-6-[2-(methoxycarbonyl)phenyl]-1,2,3,4,4a,10b-hexahydrophenanthridine] | 6.34 |
| CCOc1cc2c(cc1OCC)[C@@H]1CCCC[C@@H]1N=C2c1cccc(C(=O)OC)c1 (racemic) [Compound 6, (+/-)-cis-8,9-diethoxy-6-[3-(methoxycarbonyl)phenyl]-1,2,3,4,4a ,10b-hexahydrophenanthridine] | 8.14 |
| CCOc1cc2c(cc1OCC)[C@@H]1CCCC[C@@H]1N=C2c1cccc(C(=O)O)c1.Cl (racemic) [Compound 18, (+/ -)-cis-6-(3-carboxyphenyl)-8,9-diethoxy-1,2,3,4,4a,10b-hexahydrophenanthridine hydrochloride] | 7.69 |
| COC(=O)c1ccc(C2=N[C@H]3CCCC[C@H]3c3cc(OC(F)F)c(OC)cc32)cc1 (racemic) [Compound 3, (+/ -)-cis-9-difluoromethoxy-8-methoxy-6-[4-(methoxycarbonyl)phenyl]-1,2,3,4,4a ,10b-hexahydrophenanthridine] | 7.73 |
| CNC(=O)c1ccc(C2=N[C@H]3CCCC[C@H]3c3cc(OC)c(OC)cc32)cc1 (racemic) [Compound 20, (+/-)-cis-6-[4-(N-methylaminocarbonyl)phenyl]-8,9-dimethoxy-1,2,3,4,4a ,10b-hexahydrophenanthridine] | 5.18 |
| COC(=O)c1ccc(C2=N[C@H]3CCCC[C@H]3c3cc(OC)c(OC)cc32)cc1 (racemic) [Compound 1, (+/ -)-cis-8,9-dimethoxy-6-[4-(methoxycarbonyl)phenyl]-1,2,3,4,4a,10b-hexahydrophenanthridine] | 7.39 |
| CCOc1cc2c(cc1OCC)[C@@H]1CCCC[C@@H]1N=C2c1ccc(C(=O)O)cc1.Cl (racemic) [Compound 14, (+/ -)-cis-6-(4-carboxyphenyl)-8,9-diethoxy-1,2,3,4,4a,10b-hexahydrophenanthridine hydrochloride] | 8.27 |
| COC(=O)c1ccc(C2=N[C@H]3CCCC[C@H]3c3cc(OC)c(OC)cc32)cc1 (single isomer, unassigned) [Compound 11, (-)-cis-8,9-dimethoxy-6-[4-(methoxycarbonyl)phenyl]-1,2,3,4,4a,10b-hexahydrophenanthridine] | 7.52 |
| CCOc1cc2c(cc1OC)[C@@H]1CCCC[C@@H]1N=C2c1ccc(C(=O)O)cc1.Cl (racemic) [Compound 17, (+/ -)-cis-6-(4-carboxyphenyl)-8-ethoxy-9-methoxy-1,2,3,4,4a,10b-hexahydrophenanthridine hydrochloride] | 6.79 |
| CCOc1cc2c(cc1OCC)[C@@H]1CCCC[C@@H]1N=C2c1ccc(C(=O)OC)cc1 (single isomer, unassigned) [Compound 9, (-)-cis-8,9-diethoxy-6-[4-(methoxycarbonyl)phenyl]-1,2,3,4,4a,10b-hexahydrophenanthridine] | 8.52 |
| COC(=O)c1ccc(C2=N[C@H]3CCCC[C@@H]3c3cc(OC)c(OC)cc32)cc1 (racemic) [Compound 8, (+/ -)-trans-8,9-dimethoxy-6-[4-(methoxycarbonyl)phenyl]-1,2,3,4,4a,10b-hexahydrophenanthridine] | 5.92 |
| COc1cc2c(cc1OC)[C@@H]1CCCC[C@@H]1N=C2c1ccc(C(=O)O)cc1.Cl (racemic) [Compound 15, (+/ -)-cis-6-(4-carboxyphenyl)-8,9-dimethoxy-1,2,3,4,4a,10b-hexahydrophenanthridine hydrochloride] | 6.81 |
